Data on 37 compounds can be found in ChEMBL document CHEMBL3259757, “B-ring modified aurones as promising allosteric inhibitors of hepatitis C virus RNA-dependent RNA polymerase” (Eur J Med Chem, 2014).

A short description of assay [1]: Inhibition of HCV J4 genotype 1b NS5Bdelta21 polymerase using homopolymeric RNA by SYBR Green assay. The arrangement: species or system Hepatitis C virus subtype 1b.
Assay [2] deals with Hepatitis C virus subtype 1b. The assay can be described thus: Inhibition of HCV J4 genotype 1b NS5Bdelta21 polymerase using homopolymeric RNA at 20 uM by SYBR Green assay.

For the compound `O=C1/C(=C/c2cn(Cc3cccc(O)c3)c3ccccc23)Oc2cc(O)cc(O)c21`, half-maximal inhibition in assay [1] (IC50) was put at 2.4 µM. Moreover, in assay [2], the inhibition worked out at 99.3%.
For `O=C1/C(=C/c2ccco2)Oc2cc(O)cc(O)c21`, the IC50 in assay [1] was more than 16 µM. This compound also had an inhibition in assay [2] of 27%.
`CCCCn1cc(/C=C2\Oc3cc(O)cc(O)c3C2=O)c2cccc(OC)c21` came in with an inhibition in assay [2] of 93.1%.
Turning to `O=C1/C(=C/c2ccc(N3CCCCC3)cc2)Oc2cc(O)cc(O)c21`, the IC50 in assay [1] was 5.5 µM. The compound also gave an inhibition in assay [2] of 93%.
`O=C1/C(=C/c2ccc(-c3ccccc3)cc2)Oc2cc(O)cc(O)c21` displayed an IC50 in assay [1] of 4 µM. The inhibition in assay [2] was determined as 93%.
The matching figures for `O=C1/C(=C/c2cn(Cc3cccc(Br)c3)c3ccccc23)Oc2cc(O)cc(O)c21`: 2.4 µM and 96%.
`Cn1c(/C=C2\Oc3cc(O)cc(O)c3C2=O)cc2ccccc21` gave an IC50 in assay [1] of 3.1 µM. Further, the inhibition in assay [2] is 97.8%.
The matching figures for `Cc1cccc(Cn2cc(/C=C3\Oc4cc(O)cc(O)c4C3=O)c3ccccc32)c1`: 2.6 µM and 95.6%.
The matching figures for `CCCCOc1ccc(/C=C2\Oc3cc(O)cc(O)c3C2=O)c(OCCCC)c1`: 4 µM and 90%.
The matching figures for `O=C1/C(=C/c2ccc3ccccc3c2)Oc2cc(O)cc(O)c21`: 3.4 µM and 95%.
In the case of `O=C1/C(=C/c2ccc(-c3cccs3)cc2)Oc2cc(O)cc(O)c21`, half-maximal inhibition in assay [1] (IC50) was put at 4 µM. The compound also gave an inhibition in assay [2] of 97%.
Take `CCCCn1c(/C=C2\Oc3cc(O)cc(O)c3C2=O)cc2ccccc21`: inhibition in assay [1] was half-maximal at 3 µM (IC50). In assay [2], the inhibition was 98.4%.
The matching figures for `Cn1cccc1/C=C1\Oc2cc(O)cc(O)c2C1=O`: more than 16 µM and 55%.
The matching figures for `Cn1cc(/C=C2\Oc3cc(O)cc(O)c3C2=O)c2ccccc21`: 6 µM and 90%.
In assay [2], `CCCCn1cc(/C=C2\Oc3cc(O)cc(O)c3C2=O)c2cc(O)ccc21` had an inhibition of 53.5%.
Take `O=C1/C(=C/c2ccc3[nH]cnc3c2)Oc2cc(O)cc(O)c21`: the IC50 in assay [1] came out at 10 µM. In addition, in assay [2], the inhibition was 81%.
As for `O=C1/C(=C/c2cn(CCc3ccccc3)c3ccccc23)Oc2cc(O)cc(O)c21`, the IC50 in assay [1] was determined as 3.2 µM. The compound also displayed an inhibition in assay [2] of 93.9%.
With `CC(C)Cn1cc(/C=C2\Oc3cc(O)cc(O)c3C2=O)c2ccccc21`, in assay [1], it took 8 µM to reach half-maximal inhibition (IC50). For the same compound, the inhibition in assay [2] was determined as 80.7%.
The compound `CCCCn1c(C)c(/C=C2\Oc3cc(O)cc(O)c3C2=O)c2ccccc21` had an inhibition in assay [2] of 91.6%.
The same measure, in the same setting: as for `O=C1/C(=C/c2ccc3ccccc3n2)Oc2cc(O)cc(O)c21`, the figure is 42%; as for `CCCCn1cc(/C=C2\Oc3cc(O)cc(O)c3C2=O)c2cc(OC)ccc21`, 93.8%; as for `CCCCn1ccc2cc(/C=C3\Oc4cc(O)cc(O)c4C3=O)ccc21`, 94.3%.
Still for that read-out and setting: the result for `O=C1/C(=C/c2cccc3ccccc23)Oc2cc(O)cc(O)c21` reads 45%.
Compound `CCCCn1cc(/C=C2\Oc3cc(O)cc(O)c3C2=O)c2cc(C)ccc21` registered an inhibition in assay [2] of 96%.
The same measure, in the same setting: the result for `O=C(O)CCCn1cc(/C=C2\Oc3cc(O)cc(O)c3C2=O)c2ccccc21` reads 70%.
Compound `O=C1/C(=C/c2cnc[nH]2)Oc2cc(O)cc(O)c21` had an IC50 in assay [1] of more than 16 µM. In assay [2], this compound returned an inhibition of 39%.
In assay [1], `CN(C)c1ccc(/C=C2\Oc3cc(O)cc(O)c3C2=O)cc1` yielded an IC50 of 5 µM. This compound also displayed an inhibition in assay [2] of 90%.
In assay [1], `O=C1/C(=C/c2ccc(CO)o2)Oc2cc(O)cc(O)c21` displayed a concentration for half-maximal inhibition (IC50) of more than 16 µM. The compound also gave an inhibition in assay [2] of 33%.
In assay [1], `O=C1/C(=C/c2cn(Cc3ccccc3)c3ccccc23)Oc2cc(O)cc(O)c21` had an IC50 of 2.6 µM. In assay [2], this compound yielded an inhibition of 96.2%.
The matching figures for `COc1cccc(Cn2cc(/C=C3\Oc4cc(O)cc(O)c4C3=O)c3ccccc32)c1`: 2.7 µM and 95.4%.
`CC(C)=CCn1cc(/C=C2\Oc3cc(O)cc(O)c3C2=O)c2ccccc21` had an IC50 in assay [1] of 3 µM. The inhibition in assay [2] came to 94.7%.
The matching figures for `O=C1/C(=C/c2cn(CCCc3ccccc3)c3ccccc23)Oc2cc(O)cc(O)c21`: 2.7 µM and 93%.
As to `O=C1/C(=C/c2ccc(C(F)(F)F)cc2)Oc2cc(O)cc(O)c21`, the IC50 in assay [1] is 5.4 µM. In addition, in assay [2], the inhibition was found to be 96%.
The matching figures for `CCCCn1cc(/C=C2\Oc3cc(O)cc(O)c3C2=O)c2cccc(O)c21`: 2.3 µM and 98.9%.
The matching figures for `O=C1/C(=C/c2cn(CC3CCCCC3)c3ccccc23)Oc2cc(O)cc(O)c21`: 3.3 µM and 93%.
In the case of `CCCCOc1ccc(/C=C2\Oc3cc(O)cc(O)c3C2=O)cc1`, the inhibition in assay [2] came out at 81%.
On the same count and under the same terms, the result for `CCCCn1cc(/C=C2\Oc3cc(O)cc(O)c3C2=O)c2cccc(C)c21` reads 92.5%.
